According to ChEMBL document CHEMBL1287714, “5-amino-pyrazoles as potent and selective p38α inhibitors” (Bioorg Med Chem Lett, 2010):
Converted amounts (≈) assume the structure as drawn. Each block holds one molecule with its values, some of them ahead of it.

What was measured:
[1] = biological target: Mitogen-activated protein kinase 14 (Homo sapiens, UniProt Q16539); experiment: Inhibition of human recombinant p38alpha
[2] = tested on: PBMC; experiment: Antiinflammatory activity in human PBMC assessed as inhibition of LPS-induced TNFalpha production; assay type: functional, cell-based
[3] = Inhibition of GSK3
[4] = biological target: Vascular endothelial growth factor receptor 2 (Homo sapiens, UniProt P35968); experiment: Inhibition of KDR
Vascular endothelial growth factor receptor 2, sequence (P35968 whole entry): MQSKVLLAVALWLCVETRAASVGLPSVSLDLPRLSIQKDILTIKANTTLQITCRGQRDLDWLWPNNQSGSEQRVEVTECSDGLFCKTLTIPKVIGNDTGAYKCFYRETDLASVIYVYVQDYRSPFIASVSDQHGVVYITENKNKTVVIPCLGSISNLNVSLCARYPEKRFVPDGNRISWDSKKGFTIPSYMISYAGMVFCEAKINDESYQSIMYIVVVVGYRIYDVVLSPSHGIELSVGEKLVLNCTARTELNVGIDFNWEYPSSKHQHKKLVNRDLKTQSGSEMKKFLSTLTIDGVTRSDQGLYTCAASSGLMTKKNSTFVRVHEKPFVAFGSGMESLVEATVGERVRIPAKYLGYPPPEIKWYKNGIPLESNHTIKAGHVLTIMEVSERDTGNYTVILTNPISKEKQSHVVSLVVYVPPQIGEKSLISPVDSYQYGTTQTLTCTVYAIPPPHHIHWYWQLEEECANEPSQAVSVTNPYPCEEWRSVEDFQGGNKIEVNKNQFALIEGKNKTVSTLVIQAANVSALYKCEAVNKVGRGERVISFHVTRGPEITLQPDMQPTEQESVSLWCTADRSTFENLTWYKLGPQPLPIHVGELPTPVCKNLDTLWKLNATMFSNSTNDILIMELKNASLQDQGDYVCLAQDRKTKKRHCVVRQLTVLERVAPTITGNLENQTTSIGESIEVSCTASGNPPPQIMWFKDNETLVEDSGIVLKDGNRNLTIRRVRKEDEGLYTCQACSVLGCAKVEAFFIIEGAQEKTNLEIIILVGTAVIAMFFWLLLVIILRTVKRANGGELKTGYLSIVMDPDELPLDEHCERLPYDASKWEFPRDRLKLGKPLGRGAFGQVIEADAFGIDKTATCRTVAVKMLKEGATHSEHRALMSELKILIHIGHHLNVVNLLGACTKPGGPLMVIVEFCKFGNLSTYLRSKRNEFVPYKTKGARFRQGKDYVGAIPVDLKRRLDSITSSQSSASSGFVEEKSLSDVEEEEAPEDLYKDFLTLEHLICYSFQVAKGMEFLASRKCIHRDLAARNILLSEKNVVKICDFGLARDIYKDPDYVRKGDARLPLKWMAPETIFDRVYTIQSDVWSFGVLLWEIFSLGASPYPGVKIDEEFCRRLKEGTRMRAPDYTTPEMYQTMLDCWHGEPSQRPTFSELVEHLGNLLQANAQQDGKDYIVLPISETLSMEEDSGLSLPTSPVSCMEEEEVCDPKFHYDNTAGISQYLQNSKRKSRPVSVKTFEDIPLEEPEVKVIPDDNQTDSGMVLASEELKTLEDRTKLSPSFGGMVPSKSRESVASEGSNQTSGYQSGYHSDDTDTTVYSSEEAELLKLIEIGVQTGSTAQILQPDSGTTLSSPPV

[5] = biological target: Tyrosine-protein kinase ITK/TSK (Homo sapiens, UniProt Q08881); experiment: Inhibition of Itk
[6] = biological target: Diacylglycerol O-acyltransferase 1 (Homo sapiens, UniProt O75907); experiment: Inhibition of DGAT
[7] = Aqueous solubility of the compound at pH 6.5; assay type: physicochemical
[8] = biological target: Cytochrome P450 1A2 (Homo sapiens, UniProt P05177); experiment: Inhibition of CYP1A2; assay type: ADME
[9] = biological target: Non-receptor tyrosine-protein kinase TYK2 (Homo sapiens, UniProt P29597); experiment: Inhibition of Tyk2
Non-receptor tyrosine-protein kinase TYK2, sequence (P29597 whole entry): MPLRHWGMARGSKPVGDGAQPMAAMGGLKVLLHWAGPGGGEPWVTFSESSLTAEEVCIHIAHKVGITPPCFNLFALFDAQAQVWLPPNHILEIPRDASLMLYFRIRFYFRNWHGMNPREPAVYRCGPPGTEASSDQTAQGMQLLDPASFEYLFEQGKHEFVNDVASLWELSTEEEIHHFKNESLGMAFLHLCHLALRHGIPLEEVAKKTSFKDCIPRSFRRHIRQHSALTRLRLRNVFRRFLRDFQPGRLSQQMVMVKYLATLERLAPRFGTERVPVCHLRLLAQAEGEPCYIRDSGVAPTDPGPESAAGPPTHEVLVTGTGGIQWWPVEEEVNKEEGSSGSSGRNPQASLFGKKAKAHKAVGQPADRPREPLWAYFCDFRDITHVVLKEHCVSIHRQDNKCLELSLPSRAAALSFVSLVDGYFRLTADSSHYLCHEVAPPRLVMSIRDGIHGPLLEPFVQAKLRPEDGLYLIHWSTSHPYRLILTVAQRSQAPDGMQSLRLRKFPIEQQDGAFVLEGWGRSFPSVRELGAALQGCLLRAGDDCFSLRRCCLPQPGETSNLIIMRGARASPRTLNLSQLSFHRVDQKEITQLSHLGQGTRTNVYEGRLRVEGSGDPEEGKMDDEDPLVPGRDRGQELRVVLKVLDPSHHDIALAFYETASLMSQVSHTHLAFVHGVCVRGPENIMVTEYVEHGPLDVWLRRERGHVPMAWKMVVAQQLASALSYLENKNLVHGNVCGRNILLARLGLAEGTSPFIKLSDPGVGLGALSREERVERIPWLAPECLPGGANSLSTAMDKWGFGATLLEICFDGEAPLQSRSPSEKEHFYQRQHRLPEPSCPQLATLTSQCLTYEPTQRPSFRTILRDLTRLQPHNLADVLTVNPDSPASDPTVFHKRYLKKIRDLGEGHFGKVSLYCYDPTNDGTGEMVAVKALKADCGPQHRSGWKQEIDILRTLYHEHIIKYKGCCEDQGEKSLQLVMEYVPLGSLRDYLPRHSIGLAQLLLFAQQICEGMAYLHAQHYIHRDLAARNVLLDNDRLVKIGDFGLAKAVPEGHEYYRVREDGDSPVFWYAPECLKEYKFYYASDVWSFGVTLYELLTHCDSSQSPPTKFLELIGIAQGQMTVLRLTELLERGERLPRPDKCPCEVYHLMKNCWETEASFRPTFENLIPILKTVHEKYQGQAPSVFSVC

[10] = biological target: Tyrosine-protein kinase BTK (Homo sapiens, UniProt Q06187); experiment: Inhibition of Btk
Tyrosine-protein kinase BTK, sequence (Q06187 whole entry): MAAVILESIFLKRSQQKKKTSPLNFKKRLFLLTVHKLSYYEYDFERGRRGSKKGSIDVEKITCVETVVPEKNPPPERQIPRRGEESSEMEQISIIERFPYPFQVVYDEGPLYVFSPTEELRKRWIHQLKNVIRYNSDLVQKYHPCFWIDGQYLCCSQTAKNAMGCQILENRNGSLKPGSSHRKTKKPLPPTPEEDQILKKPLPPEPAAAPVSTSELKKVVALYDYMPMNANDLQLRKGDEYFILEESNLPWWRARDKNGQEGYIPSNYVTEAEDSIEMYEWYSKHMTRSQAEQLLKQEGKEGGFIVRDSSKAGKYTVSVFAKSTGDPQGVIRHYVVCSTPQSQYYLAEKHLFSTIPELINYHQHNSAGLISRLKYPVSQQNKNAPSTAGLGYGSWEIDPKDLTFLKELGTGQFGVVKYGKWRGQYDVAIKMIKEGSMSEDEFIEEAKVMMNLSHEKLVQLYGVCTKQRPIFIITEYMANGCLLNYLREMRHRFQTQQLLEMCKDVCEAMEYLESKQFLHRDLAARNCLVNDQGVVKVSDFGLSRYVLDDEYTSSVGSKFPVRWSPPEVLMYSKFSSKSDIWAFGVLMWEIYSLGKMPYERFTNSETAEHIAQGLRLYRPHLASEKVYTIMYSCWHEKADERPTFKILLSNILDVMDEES

[11] = biological target: Protein kinase C zeta type (Homo sapiens, UniProt Q05513); experiment: Inhibition of PKCzeta
[12] = Metabolic rate in mouse liver microsomes at 3 uM after 10 mins
[13] = biological target: Signal transducer and activator of transcription 3 (Homo sapiens, UniProt P40763); experiment: Inhibition of STAT3
[14] = biological target: Tyrosine-protein kinase JAK3 (Homo sapiens, UniProt P52333); experiment: Inhibition of Jak3
[15] = biological target: Insulin-like growth factor 1 receptor (Homo sapiens, UniProt P08069); experiment: Inhibition of IGF-1R
[16] = Metabolic rate in human liver microsomes at 3 uM after 10 mins
[17] = Apparent permeability across human Caco-2 cells; assay type: ADME, cell-based; conditions: read-out: permeability
[18] = Metabolic rate in rat liver microsomes at 3 uM after 10 mins
[19] = biological target: Protein kinase C alpha type (Homo sapiens, UniProt P17252); experiment: Inhibition of PKCalpha
[20] = Inhibition of PDGF receptor
[21] = Inhibition of VEGF receptor
[22] = biological target: Voltage-gated inwardly rectifying potassium channel KCNH2 (Homo sapiens, UniProt Q12809); experiment: Inhibition of human ERG by flux assay
[23] = Inhibition of CaMK2
[24] = biological target: Fibroblast growth factor receptor 1 (Homo sapiens, UniProt P11362); experiment: Inhibition of FGFR1
[25] = biological target: Cytochrome P450 2C9 (Homo sapiens, UniProt P11712); experiment: Inhibition of CYP2C9; assay type: ADME
[26] = Inhibition of Lckzeta
[27] = biological target: Cytochrome P450 2C19 (Homo sapiens, UniProt P33261); experiment: Inhibition of CYP2C19; assay type: ADME
[28] = tested on: Mus musculus; experiment: Antiinflammatory activity in mouse plasma assessed as inhibition of LPS-induced TNFalpha production at 5 mg/kg, po administered 24 hrs before LPS challenge measured after 90 mins; assay type: functional
[29] = biological target: Protein kinase C delta type (Homo sapiens, UniProt Q05655); experiment: Inhibition of PKCdelta
[30] = biological target: Cytochrome P450 3A4 (Homo sapiens, UniProt P08684); experiment: Inhibition of CYP3A4; assay type: ADME
[31] = biological target: MAP kinase-activated protein kinase 2 (Homo sapiens, UniProt P49137); experiment: Inhibition of MK2
MAP kinase-activated protein kinase 2, sequence (P49137 whole entry): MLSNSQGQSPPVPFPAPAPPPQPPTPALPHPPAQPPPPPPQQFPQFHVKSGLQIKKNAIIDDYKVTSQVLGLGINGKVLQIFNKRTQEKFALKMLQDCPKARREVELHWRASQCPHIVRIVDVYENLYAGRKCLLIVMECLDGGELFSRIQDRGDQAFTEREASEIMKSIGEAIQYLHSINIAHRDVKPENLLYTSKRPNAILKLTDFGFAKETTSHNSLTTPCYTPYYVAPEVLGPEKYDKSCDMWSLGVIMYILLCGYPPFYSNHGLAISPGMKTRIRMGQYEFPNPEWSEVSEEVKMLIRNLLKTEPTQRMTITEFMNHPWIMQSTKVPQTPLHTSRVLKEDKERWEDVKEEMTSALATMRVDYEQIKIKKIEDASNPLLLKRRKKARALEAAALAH

[32] = biological target: Serine/threonine-protein kinase PLK1 (Homo sapiens, UniProt P53350); experiment: Inhibition of PLK1
Serine/threonine-protein kinase PLK1, sequence (P53350 whole entry): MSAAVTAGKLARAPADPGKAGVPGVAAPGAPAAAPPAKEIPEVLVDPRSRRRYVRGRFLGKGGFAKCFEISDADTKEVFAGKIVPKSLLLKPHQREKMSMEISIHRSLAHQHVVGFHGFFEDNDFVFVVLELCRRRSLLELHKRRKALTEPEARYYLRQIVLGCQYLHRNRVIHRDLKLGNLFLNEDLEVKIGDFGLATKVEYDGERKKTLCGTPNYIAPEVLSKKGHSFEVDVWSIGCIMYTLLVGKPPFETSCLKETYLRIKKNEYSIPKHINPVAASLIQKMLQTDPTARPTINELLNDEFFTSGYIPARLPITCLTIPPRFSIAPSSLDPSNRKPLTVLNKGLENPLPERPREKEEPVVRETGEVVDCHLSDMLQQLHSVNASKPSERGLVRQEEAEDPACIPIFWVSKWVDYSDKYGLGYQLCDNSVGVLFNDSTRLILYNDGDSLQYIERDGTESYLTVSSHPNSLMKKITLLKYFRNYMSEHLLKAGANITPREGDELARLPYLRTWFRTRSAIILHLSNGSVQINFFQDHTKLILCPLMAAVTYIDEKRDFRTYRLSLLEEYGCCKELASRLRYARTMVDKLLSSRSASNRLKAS

[33] = biological target: Cytochrome P450 2D6 (Homo sapiens, UniProt P10635); experiment: Inhibition of CYP2D6; assay type: ADME
Cytochrome P450 2D6, sequence (P10635 whole entry): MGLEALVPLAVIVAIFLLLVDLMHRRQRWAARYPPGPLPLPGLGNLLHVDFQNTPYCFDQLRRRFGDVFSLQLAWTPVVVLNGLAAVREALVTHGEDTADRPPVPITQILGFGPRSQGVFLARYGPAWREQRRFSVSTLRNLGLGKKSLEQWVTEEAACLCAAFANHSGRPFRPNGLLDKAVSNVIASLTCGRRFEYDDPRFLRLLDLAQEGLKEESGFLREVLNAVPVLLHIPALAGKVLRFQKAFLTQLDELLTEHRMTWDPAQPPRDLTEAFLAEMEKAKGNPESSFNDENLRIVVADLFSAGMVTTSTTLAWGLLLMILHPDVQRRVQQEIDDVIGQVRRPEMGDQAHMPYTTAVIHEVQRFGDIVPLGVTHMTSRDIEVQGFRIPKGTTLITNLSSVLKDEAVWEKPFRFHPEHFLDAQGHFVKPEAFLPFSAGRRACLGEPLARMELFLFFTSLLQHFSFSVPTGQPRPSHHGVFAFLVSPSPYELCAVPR

[34] = Inhibition of PKCtau

Mitogen-activated protein kinase 14, sequence (Q16539 whole entry): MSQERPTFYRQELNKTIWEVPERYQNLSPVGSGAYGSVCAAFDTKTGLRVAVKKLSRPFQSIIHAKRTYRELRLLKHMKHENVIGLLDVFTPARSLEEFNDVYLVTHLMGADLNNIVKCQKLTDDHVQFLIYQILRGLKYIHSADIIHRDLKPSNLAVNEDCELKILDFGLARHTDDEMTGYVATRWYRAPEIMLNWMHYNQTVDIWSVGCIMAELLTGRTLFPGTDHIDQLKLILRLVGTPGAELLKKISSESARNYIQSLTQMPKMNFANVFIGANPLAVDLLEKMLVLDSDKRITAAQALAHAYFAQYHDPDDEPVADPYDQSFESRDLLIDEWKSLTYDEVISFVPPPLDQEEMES

IC50 [1]: 5 nM
Compound: CCNc1c(C(=O)Nc2cc(C(=O)Nc3ccon3)ccc2C)cnn1-c1ccccc1C
IC50 [2]: 1 nM

IC50 [3]: > 5000 nM
IC50 [4]: > 50000 nM
IC50 [5]: > 50000 nM
IC50 [1]: 2 nM
IC50 [6]: > 20000 nM
solubility [7]: 33 µg/mL (≈ 78.5 µM)
IC50 [8]: > 40000 nM
IC50 [9]: > 5000 nM
IC50 [10]: > 15000 nM
IC50 [11]: > 20000 nM
metabolic rate at 10 min, 3 µM [12]: 0 nmol/min/mg
IC50 [13]: > 10000 nM
IC50 [14]: > 10000 nM
IC50 [15]: > 50000 nM
metabolic rate at 10 min, 3 µM [16]: 0.001 nmol/min/mg
Papp [17]: 23.1 ×10⁻⁶ cm/s
metabolic rate at 10 min, 3 µM [18]: 0 nmol/min/mg
IC50 [19]: > 40000 nM
IC50 [20]: 9200 nM
IC50 [21]: > 50000 nM
IC50 [23]: > 50000 nM
IC50 [24]: > 50000 nM
IC50 [25]: 23000 nM
IC50 [26]: > 50000 nM
IC50 [27]: > 13000 nM
IC50 [29]: > 40000 nM
IC50 [30]: > 40000 nM
IC50 [31]: > 30000 nM
IC50 [32]: > 15000 nM
IC50 [33]: > 40000 nM
IC50 [34]: > 13000 nM
Compound: Cc1ccc(C(=O)Nc2ccon2)cc1NC(=O)c1cnn(-c2ccccc2F)c1N
IC50 [2]: 1 nM
IC50 [22]: > 160000 nM
inhibition in vivo at 5 mg/kg [28]: > 75%

IC50 [1]: 2 nM
Compound: CCCCn1ncc(C(=O)Nc2cc(C(=O)Nc3ccon3)ccc2C)c1N
IC50 [2]: 2 nM

IC50 [1]: 2 nM
Compound: Cc1ccc(C(=O)Nc2ccon2)cc1NC(=O)c1cnn(-c2ccc(F)cc2)c1N
IC50 [2]: 2 nM

IC50 [1]: 5 nM
Compound: CNc1c(C(=O)Nc2cc(C(=O)Nc3ccon3)ccc2C)cnn1-c1ccccc1
IC50 [2]: 7 nM

IC50 [1]: 2 nM
Compound: CCn1nccc1NC(=O)c1ccc(C)c(NC(=O)c2cnn(-c3ccc(F)cc3)c2N)c1
IC50 [2]: 2 nM

IC50 [1]: 2 nM
Compound: Cc1ccc(C(=O)Nc2ccon2)cc1NC(=O)c1cnn(-c2ccccn2)c1N
IC50 [2]: 8 nM

More lines, now with the values behind:

Compound: Cc1ccc(C(=O)Nc2ccnn2C)cc1NC(=O)c1cnn(-c2ccccc2)c1N
IC50 [1]: 7 nM
IC50 [2]: 5 nM

Compound: CCNC(=O)c1ccc(C)c(NC(=O)c2cnn(-c3ccccc3)c2NCC)c1
IC50 [1]: 6 nM
IC50 [2]: 15 nM

Compound: CNC(=O)c1ccc(C)c(NC(=O)c2cnn(-c3ccccc3)c2N)c1
IC50 [1]: 14 nM
IC50 [2]: 48 nM

Compound: Cc1ccc(C(=O)Nc2ccnn2C)cc1NC(=O)c1cnn(-c2ccccc2F)c1N
IC50 [1]: 4 nM
IC50 [2]: 2 nM

Compound: CCn1nccc1NC(=O)c1ccc(C)c(NC(=O)c2cnn(-c3ccccc3)c2N)c1
IC50 [1]: 5 nM
IC50 [2]: 8 nM

Compound: Cc1ccc(C(=O)NC2CC2)cc1NC(=O)c1cnn(-c2ccccc2)c1N
IC50 [1]: 7 nM
IC50 [2]: 26 nM

Compound: CCNC(=O)c1ccc(C)c(NC(=O)c2cnn(-c3ccccc3)c2N)c1
IC50 [1]: 8 nM
IC50 [2]: 16 nM

Compound: CCn1nccc1NC(=O)c1ccc(C)c(NC(=O)c2cnn(-c3ccccc3F)c2N)c1
IC50 [1]: 3 nM
IC50 [2]: 5 nM

Compound: CCNc1c(C(=O)Nc2cc(C(=O)Nc3ccon3)ccc2C)cnn1-c1ccccn1
IC50 [1]: 4 nM
IC50 [2]: 30 nM

Compound: Cc1ccc(C(=O)Nc2ccon2)cc1NC(=O)c1cnn(-c2ccccc2)c1N
IC50 [2]: 1 nM

Compound: CCCCn1ncc(C(=O)Nc2cc(C(=O)Nc3ccnn3C)ccc2C)c1N
IC50 [1]: 7 nM
IC50 [2]: 17 nM
